# Test results from article PMC4926077, “Synthesis of Pelorol and Its Analogs and Their Inhibitory Effects on Phosphatidylinositol 3-Kinase” (Marine Drugs, 2016).
# pIC50: −log10 of the molar value. Like-named read-outs stand apart in the source and are kept apart here.
# Key:
# K562 = assay: Antiproliferative CCK8 assay, K562; type: cell-based; conditions: Homo sapiens, 72 h incubation, average of three replicates, read-out: Relative IC50 against tumor cell line K562
# Experimental: (§1) The following cell lines, MCF-7, SK-BR-3, K562, Hela, MOLT-4, DU145, U937, and PC3 were purchased from Shanghai Cell Bank, Chinese Academy of Sciences. The cells were maintained at 37 °C in a 5% CO2 incubator in DMEM (Gibco, Invitrogen, Carlsbad, CA, USA) or RPMI1640 (Gibco, Invitrogen) containing 10% FBS. Cell proliferation was determined by CCK8 assay (DOjinDo, Kyoto, Japan). Cells were seeded at a density of 800–1000 cells/well in 384 well plates and treated with solvent control or various concentration of compounds. After 72 h incubation, CCK8 reagent was added and absorbance was measured at 450 nm by using Envision 2104 multi-label Reader (Perkin Elmer, Waltham, MA, USA). Dose-response curves were plotted to determine the IC50 values using Prism 5.0 (Graph Pad software Inc., San Diego, CA, USA).
# MCF-7 = assay: Antiproliferative CCK8 assay, MCF-7; type: cell-based; conditions: Homo sapiens, MCF7, 72 h incubation, average of three replicates, read-out: Relative IC50 against tumor cell line MCF-7
# Experimental: as §1
# MOLT-4 = assay: Antiproliferative CCK8 assay, MOLT-4; type: cell-based; conditions: Homo sapiens, leukemia cell, 72 h incubation, average of three replicates, read-out: Relative IC50 against tumor cell line MOLT-4
# Experimental: as §1
# SK-BR-3 = assay: Antiproliferative CCK8 assay, SK-BR-3; type: cell-based; conditions: Homo sapiens, 72 h incubation, average of three replicates, read-out: Relative IC50 against tumor cell line SK-BR-3
# Experimental: as §1
# DU145 = assay: Antiproliferative CCK8 assay, DU145; type: cell-based; conditions: Homo sapiens, DU-145, prostate cancer cell, 72 h incubation, average of three replicates, read-out: Relative IC50 against tumor cell line DU145
# Experimental: as §1
# U937 = assay: Antiproliferative CCK8 assay, U937; type: cell-based; conditions: Homo sapiens, U-937, leukemia cell, 72 h incubation, average of three replicates, read-out: Relative IC50 against tumor cell line U937
# Experimental: as §1
# PI3Kα = PI3Kα (Homo sapiens, UniProt P42336); assay: PI3K enzymatic activity assay (Kinase-Glo), PI3Kα; type: biochemical
# Experimental: (§2) We assumed that electronic effects might influence the inhibitory activity of compounds against PI3Kα. […] PI3K reactions were performed in 50 mM HEPES at pH 7.5 with 1 mM EGTA, 100 mM NaCl, 3 mM MgCl2, 2 mM DTT, and 0.03% CHAPS. All tested compounds were dissolved in 100% DMSO. PIP2 and ATP were used as substrates, and the final reaction volume was 10 μL. […] After incubating for 1 h at room temperature, the reactions were quenched by adding 10 μL of Kinase-Glo reagent. Raw data were collected from Flexstation program.
# PC3 = assay: Antiproliferative CCK8 assay, PC3; type: cell-based; conditions: Homo sapiens, PC-3, 72 h incubation, average of three replicates, read-out: Relative IC50 against tumor cell line PC3
# Experimental: as §1
# Hela = assay: Antiproliferative CCK8 assay, Hela; type: cell-based; conditions: Homo sapiens, 72 h incubation, average of three replicates, read-out: Relative IC50 against tumor cell line Hela
# Experimental: as §1
# PI3Kβ = PI3Kβ (Homo sapiens, UniProt P42338); assay: PI3K enzymatic activity assay, PI3Kβ; type: biochemical
# Experimental: as §2
# PI3Kδ = PI3Kδ (Homo sapiens, UniProt O00329); assay: PI3K enzymatic activity assay, PI3Kδ; type: biochemical
# Experimental: as §2
# PI3Kγ = PI3Kγ (Homo sapiens, UniProt P48736); assay: PI3K enzymatic activity assay, PI3Kγ; type: biochemical
# Experimental: as §2
# [1] = average of three replicates, 25 μM ATP, 50 μM PIP2, 1 h, room temperature, read-out: IC50, inhibition against PI3Kα
# PI3Kα, sequence (P42336 whole entry, species assumed): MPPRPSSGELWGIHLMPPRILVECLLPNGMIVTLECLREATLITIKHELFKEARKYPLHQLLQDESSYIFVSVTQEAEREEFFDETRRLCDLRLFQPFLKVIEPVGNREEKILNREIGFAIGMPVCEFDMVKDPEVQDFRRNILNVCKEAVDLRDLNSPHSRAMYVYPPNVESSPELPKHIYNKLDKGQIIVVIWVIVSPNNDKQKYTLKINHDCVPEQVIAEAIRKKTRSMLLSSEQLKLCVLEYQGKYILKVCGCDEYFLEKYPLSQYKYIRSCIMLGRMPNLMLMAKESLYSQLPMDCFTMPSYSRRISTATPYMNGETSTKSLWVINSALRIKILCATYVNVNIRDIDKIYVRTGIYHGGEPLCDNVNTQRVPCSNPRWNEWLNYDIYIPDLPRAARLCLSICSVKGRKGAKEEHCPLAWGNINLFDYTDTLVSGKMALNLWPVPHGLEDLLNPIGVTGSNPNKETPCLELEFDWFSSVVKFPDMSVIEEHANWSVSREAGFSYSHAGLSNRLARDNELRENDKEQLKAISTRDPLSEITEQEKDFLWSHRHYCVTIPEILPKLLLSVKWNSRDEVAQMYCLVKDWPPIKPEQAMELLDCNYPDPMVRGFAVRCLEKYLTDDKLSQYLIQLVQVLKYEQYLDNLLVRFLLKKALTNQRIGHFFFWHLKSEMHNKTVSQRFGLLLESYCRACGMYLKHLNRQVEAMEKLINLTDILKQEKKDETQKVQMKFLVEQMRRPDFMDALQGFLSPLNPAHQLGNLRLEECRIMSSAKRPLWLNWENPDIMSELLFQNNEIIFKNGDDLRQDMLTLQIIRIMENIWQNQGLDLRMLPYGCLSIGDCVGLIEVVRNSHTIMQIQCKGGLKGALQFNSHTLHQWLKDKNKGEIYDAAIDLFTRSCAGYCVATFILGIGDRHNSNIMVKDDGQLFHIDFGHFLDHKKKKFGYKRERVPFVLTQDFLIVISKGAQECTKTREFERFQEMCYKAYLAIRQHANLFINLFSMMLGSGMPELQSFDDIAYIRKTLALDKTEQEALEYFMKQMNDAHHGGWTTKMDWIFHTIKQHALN
# PI3Kα, sequence (P27986 whole entry partner, species assumed): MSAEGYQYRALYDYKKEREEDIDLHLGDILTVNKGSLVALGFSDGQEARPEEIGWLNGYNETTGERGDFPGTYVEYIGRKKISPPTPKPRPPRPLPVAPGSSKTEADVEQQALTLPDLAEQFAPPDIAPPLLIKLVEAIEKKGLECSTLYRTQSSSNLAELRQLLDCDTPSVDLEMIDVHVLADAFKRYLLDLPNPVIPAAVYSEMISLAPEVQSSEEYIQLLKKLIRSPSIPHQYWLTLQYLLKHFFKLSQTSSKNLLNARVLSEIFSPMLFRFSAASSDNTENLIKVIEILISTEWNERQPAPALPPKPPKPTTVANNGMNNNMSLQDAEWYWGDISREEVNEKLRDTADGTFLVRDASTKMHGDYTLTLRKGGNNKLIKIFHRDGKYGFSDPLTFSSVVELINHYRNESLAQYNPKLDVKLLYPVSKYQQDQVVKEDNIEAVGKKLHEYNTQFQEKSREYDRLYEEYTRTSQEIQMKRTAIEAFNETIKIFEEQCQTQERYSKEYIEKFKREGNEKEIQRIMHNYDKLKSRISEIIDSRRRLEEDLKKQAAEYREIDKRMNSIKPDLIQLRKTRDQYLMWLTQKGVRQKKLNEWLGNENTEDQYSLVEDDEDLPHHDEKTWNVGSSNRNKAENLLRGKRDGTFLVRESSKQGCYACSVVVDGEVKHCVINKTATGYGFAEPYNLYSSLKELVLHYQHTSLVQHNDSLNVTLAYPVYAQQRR
# PI3Kγ, sequence (P48736 whole entry, species assumed): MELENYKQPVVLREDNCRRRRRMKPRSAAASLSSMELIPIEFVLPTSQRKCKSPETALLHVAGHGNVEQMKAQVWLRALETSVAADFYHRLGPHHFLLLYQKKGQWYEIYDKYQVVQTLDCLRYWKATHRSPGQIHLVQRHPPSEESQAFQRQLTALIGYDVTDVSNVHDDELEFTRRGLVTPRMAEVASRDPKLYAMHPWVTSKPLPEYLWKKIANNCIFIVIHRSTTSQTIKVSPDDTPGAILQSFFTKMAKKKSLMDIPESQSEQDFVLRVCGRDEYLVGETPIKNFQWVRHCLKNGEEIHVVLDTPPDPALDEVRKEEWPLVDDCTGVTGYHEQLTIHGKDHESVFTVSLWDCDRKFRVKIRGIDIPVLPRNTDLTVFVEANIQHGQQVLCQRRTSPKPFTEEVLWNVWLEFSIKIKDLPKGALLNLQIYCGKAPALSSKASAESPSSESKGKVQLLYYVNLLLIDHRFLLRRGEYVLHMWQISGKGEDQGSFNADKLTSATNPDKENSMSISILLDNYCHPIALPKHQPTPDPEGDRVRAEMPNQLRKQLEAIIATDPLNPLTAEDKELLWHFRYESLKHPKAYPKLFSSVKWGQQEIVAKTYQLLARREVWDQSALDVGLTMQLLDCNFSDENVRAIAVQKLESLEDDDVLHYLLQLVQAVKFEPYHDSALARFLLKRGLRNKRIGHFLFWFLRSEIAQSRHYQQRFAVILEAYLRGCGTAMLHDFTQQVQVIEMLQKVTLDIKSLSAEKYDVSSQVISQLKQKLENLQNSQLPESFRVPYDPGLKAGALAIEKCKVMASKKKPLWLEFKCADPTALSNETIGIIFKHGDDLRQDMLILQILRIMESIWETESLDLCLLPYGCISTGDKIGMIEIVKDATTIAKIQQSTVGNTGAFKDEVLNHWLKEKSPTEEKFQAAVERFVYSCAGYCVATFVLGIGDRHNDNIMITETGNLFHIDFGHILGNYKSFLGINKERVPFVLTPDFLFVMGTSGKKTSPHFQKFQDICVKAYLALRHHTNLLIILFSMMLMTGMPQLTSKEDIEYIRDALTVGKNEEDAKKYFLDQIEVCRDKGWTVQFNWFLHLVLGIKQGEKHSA
# PI3Kβ, sequence (P42338 whole entry, species assumed): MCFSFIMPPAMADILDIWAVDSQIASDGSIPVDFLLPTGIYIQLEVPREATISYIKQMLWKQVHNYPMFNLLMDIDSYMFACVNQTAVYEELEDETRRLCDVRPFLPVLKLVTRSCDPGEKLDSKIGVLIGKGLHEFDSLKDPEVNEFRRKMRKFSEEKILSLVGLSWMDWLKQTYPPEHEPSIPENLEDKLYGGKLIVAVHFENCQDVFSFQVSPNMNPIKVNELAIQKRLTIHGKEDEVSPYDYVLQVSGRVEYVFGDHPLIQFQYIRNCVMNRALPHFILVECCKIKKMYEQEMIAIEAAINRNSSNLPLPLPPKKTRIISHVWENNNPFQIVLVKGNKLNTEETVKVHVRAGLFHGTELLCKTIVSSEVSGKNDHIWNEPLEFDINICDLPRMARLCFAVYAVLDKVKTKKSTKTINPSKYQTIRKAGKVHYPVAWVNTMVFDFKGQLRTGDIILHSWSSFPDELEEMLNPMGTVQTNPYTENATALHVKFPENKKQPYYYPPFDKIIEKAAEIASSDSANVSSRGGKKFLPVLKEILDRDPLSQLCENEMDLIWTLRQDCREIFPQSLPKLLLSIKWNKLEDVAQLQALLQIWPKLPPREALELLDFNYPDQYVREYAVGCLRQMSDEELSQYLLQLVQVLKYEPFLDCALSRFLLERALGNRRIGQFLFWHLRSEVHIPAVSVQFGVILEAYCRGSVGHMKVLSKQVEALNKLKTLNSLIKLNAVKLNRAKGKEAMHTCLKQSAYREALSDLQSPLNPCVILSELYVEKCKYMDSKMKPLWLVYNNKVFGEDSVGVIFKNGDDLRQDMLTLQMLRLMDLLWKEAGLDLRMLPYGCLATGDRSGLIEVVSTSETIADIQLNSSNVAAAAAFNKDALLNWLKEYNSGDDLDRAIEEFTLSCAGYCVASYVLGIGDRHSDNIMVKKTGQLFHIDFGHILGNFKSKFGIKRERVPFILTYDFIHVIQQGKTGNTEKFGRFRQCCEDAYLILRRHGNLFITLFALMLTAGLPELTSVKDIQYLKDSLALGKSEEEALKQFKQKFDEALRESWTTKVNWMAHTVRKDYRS
# PI3Kβ, sequence (P27986 whole entry partner, species assumed): as the sequence (P27986 whole entry partner, species assumed) above
# PI3Kδ, sequence (O00329 whole entry, species assumed): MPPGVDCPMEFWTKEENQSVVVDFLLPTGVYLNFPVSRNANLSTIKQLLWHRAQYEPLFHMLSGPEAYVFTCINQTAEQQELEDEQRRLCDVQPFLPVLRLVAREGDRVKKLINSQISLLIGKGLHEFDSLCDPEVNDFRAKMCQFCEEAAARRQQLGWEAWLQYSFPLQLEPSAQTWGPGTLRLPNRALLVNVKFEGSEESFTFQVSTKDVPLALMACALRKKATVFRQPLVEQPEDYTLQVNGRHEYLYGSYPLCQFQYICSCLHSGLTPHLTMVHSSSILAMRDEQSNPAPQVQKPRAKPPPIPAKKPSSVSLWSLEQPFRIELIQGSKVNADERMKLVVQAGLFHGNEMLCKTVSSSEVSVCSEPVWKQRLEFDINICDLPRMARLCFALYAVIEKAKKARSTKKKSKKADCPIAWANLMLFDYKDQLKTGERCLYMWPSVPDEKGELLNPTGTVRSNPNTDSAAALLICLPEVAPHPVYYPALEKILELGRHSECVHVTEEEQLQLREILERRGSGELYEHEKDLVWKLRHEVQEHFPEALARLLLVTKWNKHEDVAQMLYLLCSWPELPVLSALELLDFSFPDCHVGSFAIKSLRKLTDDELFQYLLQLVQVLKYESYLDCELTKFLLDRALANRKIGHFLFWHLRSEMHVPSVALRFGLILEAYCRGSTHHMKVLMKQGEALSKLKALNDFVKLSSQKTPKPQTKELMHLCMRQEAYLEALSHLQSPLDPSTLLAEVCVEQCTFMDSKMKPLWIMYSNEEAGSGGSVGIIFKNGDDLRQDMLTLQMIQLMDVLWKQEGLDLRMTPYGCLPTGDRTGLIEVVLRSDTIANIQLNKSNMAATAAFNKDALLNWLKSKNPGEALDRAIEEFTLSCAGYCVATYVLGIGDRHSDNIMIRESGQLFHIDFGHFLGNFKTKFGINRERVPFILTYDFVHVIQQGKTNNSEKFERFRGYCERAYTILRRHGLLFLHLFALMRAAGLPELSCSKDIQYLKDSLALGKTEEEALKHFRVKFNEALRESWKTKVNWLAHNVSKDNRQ
# PI3Kδ, sequence (P27986 whole entry partner, species assumed): as the sequence (P27986 whole entry partner, species assumed) above
Structure (SMILES),pIC50 (K562),pIC50 (MCF-7),pIC50 (MOLT-4),pIC50 (SK-BR-3),pIC50 (DU145),pIC50 (U937),pIC50 (PI3Kα),pIC50 (PC3),pIC50 (Hela),pIC50 (PI3Kα; [1]),pIC50 (PI3Kβ),pIC50 (PI3Kδ),pIC50 (PI3Kγ)
"COC(=O)c1cc(O)c(O)c2c1[C@]1(C)CC[C@H]3C(C)(C)CCC[C@]3(C)[C@H]1C2 [Compound 1, Pelorol]",< 4.52,< 4.52,< 4.52,< 4.52,4.14,< 4.52,4.42,< 4.52,< 4.52,–,–,–,–
"CC1(C)CCC[C@]2(C)[C@H]3Cc4c(O)c(O)cc(C(=O)O)c4[C@]3(C)CC[C@@H]12 [Compound 2, (4aS,6aR,11aR,11bS)-9,10-diHydroxy-4,4,6a,11b-tetramethyl-2,3,4,4a,5,6,6a,11,11a,11b-decahydro-1H-benzo[a]fluorene-7-carboxylic acid]",< 4.52,< 4.52,–,–,< 4.52,–,–,< 4.52,–,4.68,–,–,–
"CC(=O)c1cc(O)c(O)c2c1[C@]1(C)CC[C@H]3C(C)(C)CCC[C@]3(C)[C@H]1C2 [Compound 3, 1-((4aS,6aR,11aR,11bS)-9,10-diHydroxy-4,4,6a,11b-tetramethyl-2,3,4,4a,5,6,6a,11,11a,11b-decahydro-1H-benzo[a]fluoren-7-yl)ethanone]",< 4.52,< 4.52,4.65,< 4.52,< 4.52,< 4.52,–,< 4.52,< 4.52,5.06,–,–,–
"CCc1cc(O)c(O)c2c1[C@]1(C)CC[C@H]3C(C)(C)CCC[C@]3(C)[C@H]1C2 [Compound 4, (4aS,6aR,11aR,11bS)-7-Ethyl-4,4,6a,11b-tetramethyl-2,3,4,4a,5,6,6a,11,11a,11b-decahydro-1H-benzo [a]fluorene-9,10-diol]",< 4.52,< 4.52,< 4.52,< 4.52,< 4.52,< 4.52,–,< 4.52,< 4.52,4.08,–,–,–
"CC1(C)CCC[C@]2(C)[C@H]3Cc4c(O)c(O)cc(C=O)c4[C@]3(C)CC[C@@H]12 [Compound 5, (4aS,6aR,11aR,11bS)-9,10-diHydroxy-4,4,6a,11b-tetramethyl-2,3,4,4a,5,6,6a,11,11a,11b-decahydro-1H-benzo[a]fluorene-7-carbaldehyde]",4.79,4.41,5.37,4.72,5.05,5.22,–,4.74,4.88,5.30,5.05,< 4.00,< 4.00
"CC1(C)CCC[C@]2(C)[C@H]3Cc4c(O)c(O)cc(C#N)c4[C@]3(C)CC[C@@H]12 [Compound 6, (4aS,6aR,11aR,11bS)-9,10-diHydroxy-4,4,6a,11b-tetramethyl-2,3,4,4a,5,6,6a,11,11a,11b-decahydro-1H-benzo[a]fluorene-7-carbonitrile]",< 4.52,4.78,5.54,< 4.52,5.09,4.89,–,< 4.52,4.92,4.31,–,–,–
"CCc1cc(OC)c(OC)c2c1[C@]1(C)CC[C@H]3C(C)(C)CCC[C@]3(C)[C@H]1C2 [Compound 20, (4aS,6aR,11aR,11bS)-7-Ethyl-9,10-diMethoxy-4,4,6a,11b-tetramethyl-2,3,4,4a,5,6,6a,11,11a,11b-decahydro-1H-benzo[a]fluorene]",–,–,–,–,–,–,–,–,–,< 4.00,–,–,–
